Results published in US9504751B2, “Stable pharmaceutical composition” (EVERFRONT BIOTECH INC., priority 2014, dated 2016).
≈ marks a conversion by molar mass, not a printed value.

How the values were obtained:
[1] = Room-temperature stability test: appearance of the composition; assay type: physicochemical; settings: PBS
Description: The stability study of the pharmaceutical composition was performed by: (1) observing the appearance of the pharmaceutical composition after storage at room temperature for 3 or 7 days, and classifying the results into “V” (if the pharmaceutical composition remained homogeneous) and “X” (if the pharmaceutical composition separated into two layers or had precipitation) to evaluate the appearance stability; and (2) analyzing the purity of n-butylidenephthalide by measuring the impurities in the pharmaceutical composition through relative retention time (RRT) using a LCMS instrument with the following conditions.

[2] = Droplet size, electrical conductivity and zeta potential analyses; assay type: physicochemical; settings: sample with n-butylidenephthalide 200 μg/mL
Description: The pharmaceutical composition was formulated to provide a sample in which the concentration of n-butylidenephthalide is 200 μg/mL. The droplet size, electrical conductivity and zeta potential of the sample were analyzed using a high concentration nano-droplet size and zeta potential meter (Malvern Nano-ZS ZEN-3600).

[3] = Viscosity analysis (AR2000 rheometer); assay type: physicochemical
Description: The viscosity analysis was performed by measuring the relationship of viscosity of a sample to shear rate and rheological property of the sample using AR2000 rheometer (stress control) (from TA Instruments; measuring mold: cone and plate; amount of sample: 1 mL).

[4] = tested on: GBM 8401 cells; experiment: Cytotoxicity test (IC50 value), MTT cell survival assay; assay type: cell-based; settings: Homo sapiens, 24 hours
Description: GBM 8401 cells (i.e., a human brain glioblastoma multiforme cell line) were cultured in a 96-well culture plate with a cell number of 6×10^3 per well, and treated with pure n-butylidenephthalide (BP) or one of the pharmaceutical compositions for 24 hours. The treatment concentrations of active ingredient, n-butylidenephthalide (BP), were 0 μg/mL (i.e., control group), 12.5 μg/mL, 25 μg/mL, 50 μg/mL, 100 μg/mL and 200 μg/mL, respectively. Then, the half maximal inhibitory concentration (IC50) of each pharmaceutical composition to GBM 8401 cells was analyzed by MTT (3-(4,5-cimethylthiazol-2-yl)-2,5-diphenyl tetrazolium bromide) cell survival assay, to evaluate the cytotoxic effect.

[5] = In vitro artificial cellulose membrane test (Franz diffusion device); assay type: in vitro ADME; settings: 37° C., 10 hours
Description: A Franz diffusion device (SUNMEI instruments Co., Ltd, Taiwan) shown in FIG. 5 was used to estimate the ability of pure n-butylidenephthalide (BP) liquid and the pharmaceutical compositions to permeate trough the artificial cellulose membrane, to simulate their permeation through a nasal mucosa. The superficial area of diffusion of the device is about 4.5 cm^2, and the capacity volume of receptor chamber of the device is about 23 mL. […]

[6] = In vitro cell line permeation test; assay type: in vitro ADME, human; settings: human, RPMI 2650 cellular monolayer, 37° C., read-out: Peff ± SD
Description: (§1) [formula] V: Capacity of receptor chamber (mL) C0: Initial supplied concentration of drug (μg/mL) Peff: Permeability coefficient (cm/s) J: Flux (μg/cm^2·s) A: Superficial area of diffusion (cm^2)
(§2) [formula] Change of the concentration along with time under a stable status (μg/mLs)
(§3) RPMI 2650 cells (i.e., a human nasal septum squamous cell line) were seeded in a collagen-coated cell insert with 0.4 μm pore size and cultured for 2 days to lead the cells to form a cellular monolayer on the insert. The cell insert was then transferred into a 12-well plate with 1.5 mL of Hepes buffer inside. 0.5 mL of Hepes buffer containing pure n-butylidenephthalide or the pharmaceutical composition was added into the 12-well plate. Next, the 12-well plate was placed into an incubator (37° C., 5% CO2) and incubated. The buffer in each well of the 12-well plate was collected every 1 hour (6 hours in total), and the absorption spectrum of the sampled buffer was detected by a spectrophotometer at […] wavelength to calculate the concentration of n-butylidenephthalide or the pharmaceutical composition. The permeability coefficient (Peff) and flux (J) were calculated by using the above Formula 1 and Formula 2.

[7] = tested on: RPMI 2650 cells; experiment: In vitro cell line permeation test; assay type: in vitro ADME, human; settings: RPMI 2650 cellular monolayer, 37° C., 6 hours
Description: as §1, §2, §3

[8] = tested on: 9 L (rat brain gliosarcoma cell line) tumor tissue; experiment: Intranasal treatment of rats with intracranially transplanted 9 L tumor; assay type: in vivo
Description: 9 L (i.e., a rat brain gliosarcoma cell line) tumor tissue was intracranially transplanted into rats. The test of drug treatment was conducted after the intracranial tumor formed. The test method includes: (i) using 400 mg/kg of chloral hydrate (Sigma-Aldrich Company Ltd.) to anesthetize the rats, shaving the hair on the head of rats after the rats were in a coma, and fixing the rats in a stereotaxic instrument (Lab Standard™ Stereotaxic Instrument); (ii) scissoring the scalp by shears to expose the cranium, setting the bregma as a center, and drilling a 5 mm hole at the positioned drilling site 3 mm right to and 5 mm below the bregma on the cranium by a drill; (iii) clamping the prepared 9 L tumor tissue (1×1×1 mm^3) by a forceps and transplanting it into 3 mm depths within the brain, and then, resting for 1 minute to coagulate the blood, removing the forceps, and coating the bone wax on the hole, lastly, suturing the scalp of rats and administering the rats with antibiotics; (iv) 7 days after the transplantation of tumor tissue, randomly grouping the rats as the following Table 11, and then, sucking a drug (n-butylidenephthalide (BP) or pharmaceutical composition 5) by a pipette and dropping the drug into the nasal cavity of the rats to conduct an intranasal administration, and repeating the administration for 30 days and recording the body weight of rats and the number of dead rats during this medical treatment; and (v) removing the tumor, and then, measuring the length-breadth of tumor by an electronic vernier caliper and calculating the total volume of tumor by using the following Formula 3, measuring the weight of tumor at the same time, and drawing the obtained values into a bar diagram and a curve diagram, to determine the therapeutic effect.

[9] = Solubility of n-butylidenephthalide in solvents; assay type: physicochemical; settings: organic solvent or mixture

**Q.** With `CCCC=C1OC(=O)c2ccccc21` [Pure BP, n-butylidenephthalide] as the compound, how does the “Amount stable in the medium system” value ([1]; polyethoxylated castor oil, and ethanol with polypropylene glycol) read?
**A.** The value was “up to 208 mg/mL”.

**Q.** And the “Amount stable in the medium system” value ([1]; polyethoxylated castor oil, and polyethylene glycol with dimethyl sulfoxide or with ethanol (Examples 1, 5 and 6))?
**A.** Its value is “up to 1000 mg/mL”.

**Q.** And the Electrical conductivity [2]?
**A.** The Electrical conductivity was 0.02 mS/cm.

**Q.** And the Zeta potential [2]?
**A.** The Zeta potential was 0.38 mV.

**Q.** And the “Average viscosity ± SD” value ([3]; cone and plate, 1 mL sample)?
**A.** The value was 1.57 ± 0.01 ×10^−2 Pa · s.

**Q.** What about the “Rheological property (Newtonian or non-Newtonian fluid)” value ([3]; viscosity versus shear rate) of the same compound?
**A.** Its value is “Newtonian fluids”.

**Q.** What about the IC50 [4] of the same compound?
**A.** The IC50 was 70 µg/mL (≈ 0.372 mM).

**Q.** What about the “Flux ± SD” value [5] of the same compound?
**A.** Its value is 2.29 ± 0.23 10^−3 μg/cm^2 · s.

**Q.** What about the “Peff ± SD” value [5] of the same compound?
**A.** The value was 0.76 ± 0.08 10^−6 cm/s.

**Q.** What about the Papp at 6 h [6] of the same compound?
**A.** Its Papp at 6 h is 1.59 ± 0.09 ×10⁻⁶ cm/s.

**Q.** And the “Flux ± SD” value [7]?
**A.** Its value is 0.32 ± 0.02 10^−3 μg/cm^2 · s.

**Q.** And the Growth of tumor ([8]; 160 mg/kg or 320 mg/kg, compared to control group)?
**A.** The Growth of tumor was “effective in inhibiting the growth of tumor”.

**Q.** What about the Survival rate ([8]; 160 mg/kg, 30 days) of the same compound?
**A.** The Survival rate was “significantly increased and similar survival rates”.

**Q.** What about the “Volume and weight of tumor” value ([8]; 160 mg/kg, 30 days) of the same compound?
**A.** Its value is “significantly reduced and similar volume and weight of tumor”.

**Q.** What about the solubility ([9]; in ethanol) of the same compound?
**A.** Its solubility is greater than 222 mg/mL.

**Q.** What about the solubility ([9]; in polyethylene glycol 400, polyethylene glycol 300 or polypropylene glycol) of the same compound?
**A.** The solubility was 70 to 120 mg/mL (≈ 372 to 638 mM).
